This is an account of results in ChEMBL document CHEMBL1201862, “PubChem BioAssay data set” (2004).

The structures appear in SMILES notation.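 Compound exposure: 48 hours, 5 concentrations, 96-well plates. Here, GI50 denotes the concentration required for 50% inhibition of growth.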 The source made the active and inactive calls. Cut-off read from the data, not from the text of the source: active = GI50 up to about 1.1 µM and inactive = higher.

Some test systems named below: SF-268; HCT-116; DU-145; OVCAR-3; UACC-257; NCI/ADR-RES; LOX IMVI; SR; MCF7; Hs-578T; A549; HCT-15; HCC 2998; SF-295; PC-3; HT-29; K562; MDA-N.
Holding throughout (assay): NCI-60 cell line screen, 48 h

Consider `Cc1cn2c(/C=N/NC(=N)N)c(-c3cccc([N+](=O)[O-])c3)nc2s1`, for which the GI50 in the assay with SF-268 was 1.08 µM (active); in the assay with HCT-116, 0.366 µM (active); in the assay with DU-145, 1.74 µM (inactive); in the assay on OVCAR-3 it was 1.26 µM (inactive); with UACC-257 it was 2.11 µM (inactive); in the assay on NCI/ADR-RES, 28.4 µM (inactive). Also, the GI50 in the assay with LOX IMVI was 0.849 µM (active); in the assay with SR it was 1.77 µM (inactive); with MCF7, 0.625 µM (active); in the assay with Hs-578T, 2.38 µM (inactive); in the assay with A549, 1.95 µM (inactive); in the assay on HCT-15, 4.41 µM. Also, the GI50 in the assay with HCC 2998 was 0.839 µM (active); in the assay with SF-295 it was 1.81 µM (inactive); in the assay with PC-3, 1.74 µM (inactive); in the assay on HT-29 it was 0.514 µM (active); in the assay on K562, 0.215 µM (active).

With `Clc1ccc(/C=c2\nc(-c3ccccc3)n3c2nc2ccccc23)cc1`, the GI50 in the assay on SF-268 was 34.4 µM (inactive); with HCT-116 it was > 100 µM (inactive); in the assay with DU-145, > 100 µM (inactive); with OVCAR-3, 51.9 µM (inactive); with UACC-257 it was > 100 µM (inactive); in the assay on NCI/ADR-RES, 28.2 µM (inactive). In addition, the GI50 in the assay with LOX IMVI is > 100 µM (inactive); in the assay on SR, > 100 µM (inactive); in the assay with MCF7 it was > 100 µM (inactive); in the assay with Hs-578T, 49.3 µM (inactive); with A549 it was > 100 µM (inactive); in the assay on HCT-15, greater than 100 µM. Besides, the GI50 is 25.5 µM (inactive) with SF-295, 19.1 µM (inactive) with PC-3, > 100 µM (inactive) in the assay with HT-29 and > 100 µM (inactive) in the assay on K562.

On to `O=C1CN(c2ccc(Cl)cc2)C(=O)CN1CCN1CC(=O)N(c2ccc(Cl)cc2)CC1=O`, for which the GI50 with SF-268, in the assay with HCT-116, in the assay on DU-145, with OVCAR-3, in the assay with UACC-257 and in the assay on SR was > 100 µM (inactive) each time. For the same compound, the GI50 is > 100 µM (inactive) with MCF7; > 100 µM (inactive) in the assay with Hs-578T; > 100 µM (inactive) in the assay with A549; greater than 100 µM with HCT-15; > 100 µM (inactive) in the assay on HCC 2998; > 100 µM (inactive) with SF-295. Also, the GI50 with MDA-N, with PC-3 and in the assay with HT-29 was > 100 µM (inactive) each time.

For `Cc1cc2nc3[nH]nc(N)c3nc2cc1C`, the GI50 is > 100 µM (inactive) in the assay on SF-268; > 100 µM (inactive) in the assay with HCT-116; 36.6 µM (inactive) in the assay with DU-145; > 100 µM (inactive) in the assay with UACC-257; > 100 µM (inactive) with NCI/ADR-RES; > 100 µM (inactive) with LOX IMVI. Besides, the GI50 is > 100 µM (inactive) in the assay with SR; > 100 µM (inactive) with MCF7; 52.7 µM (inactive) in the assay on Hs-578T; > 100 µM (inactive) in the assay with A549; greater than 100 µM in the assay on HCT-15; > 100 µM (inactive) in the assay with HCC 2998. Moreover, the GI50 in the assay on SF-295, in the assay with MDA-N, in the assay on PC-3, in the assay on HT-29 and with K562 was > 100 µM (inactive) throughout.

On to `CCN(CC)CCn1nc(N)c2nc3ccccc3nc21`, for which the GI50 was > 100 µM (inactive) in the assay with SF-268; 53.8 µM (inactive) with HCT-116; > 100 µM (inactive) with OVCAR-3; > 100 µM (inactive) in the assay with UACC-257; > 100 µM (inactive) with NCI/ADR-RES; > 100 µM (inactive) in the assay on LOX IMVI. Also, the GI50 with SR was 59.8 µM (inactive); in the assay with MCF7 it was > 100 µM (inactive); in the assay on Hs-578T, > 100 µM (inactive); in the assay on A549, > 100 µM (inactive); in the assay with HCT-15, greater than 100 µM; in the assay on HCC 2998 it was > 100 µM (inactive). The GI50 in the assay on SF-295, with MDA-N, in the assay on PC-3, in the assay on HT-29 and in the assay on K562 was > 100 µM (inactive) throughout.

With `N/N=C(\Nc1ccccc1)SCc1ccccc1`, the GI50 in the assay on HCT-116, in the assay on DU-145, with OVCAR-3, in the assay with UACC-257, with NCI/ADR-RES and in the assay with LOX IMVI was > 100 µM (inactive) in each case. Besides, the GI50 in the assay on SR was > 100 µM (inactive); with MCF7 it was > 100 µM (inactive); in the assay with A549, > 100 µM (inactive); in the assay with HCT-15 it was greater than 100 µM; with HCC 2998 it was > 100 µM (inactive); in the assay with SF-295, > 100 µM (inactive). For the same compound, the GI50 in the assay with MDA-N, with PC-3, in the assay with HT-29 and with K562 was > 100 µM (inactive) throughout.

For the compound `O=[N+]([O-])c1ccc(C2c3c(O)nc(O)nc3Oc3nc(O)nc(O)c32)cc1`, the GI50 in the assay on SF-268, in the assay with HCT-116, with DU-145, in the assay with OVCAR-3, in the assay on UACC-257 and in the assay on Hs-578T was > 100 µM (inactive) in each case. Also, the GI50 was > 100 µM (inactive) in the assay on A549; greater than 100 µM with HCT-15; > 100 µM (inactive) with SF-295; > 100 µM (inactive) in the assay with MDA-N; > 100 µM (inactive) in the assay on PC-3; > 100 µM (inactive) in the assay with HT-29.

In the case of `O=C(O)C(=Cc1ccc(-c2ccc([N+](=O)[O-])cc2)o1)C(=O)O`, the GI50 in the assay on SF-268, with HCT-116, in the assay on DU-145, in the assay with OVCAR-3, in the assay with UACC-257 and in the assay on NCI/ADR-RES was > 100 µM (inactive) throughout. In addition, the GI50 with LOX IMVI was > 100 µM (inactive); in the assay on SR, > 100 µM (inactive); in the assay on MCF7, > 100 µM (inactive); in the assay on Hs-578T it was > 100 µM (inactive); in the assay on A549, > 100 µM (inactive); with HCT-15, greater than 100 µM. The GI50 in the assay on HCC 2998, in the assay with SF-295, with MDA-N, in the assay on PC-3, in the assay with HT-29 and in the assay on K562 was > 100 µM (inactive) in each case.

For `S=C(N/N=C(\C(=N/NC(=S)N1CCCCC1)c1ccccn1)c1ccccn1)N1CCCCC1`, the GI50 with SF-268 is 5.55 µM (inactive); in the assay with HCT-116, 15.5 µM (inactive); in the assay on DU-145 it was 14.9 µM (inactive); in the assay with OVCAR-3, 3.63 µM (inactive); with UACC-257, 54.1 µM (inactive); with NCI/ADR-RES, 7.06 µM (inactive). Also, the GI50 in the assay with LOX IMVI is 20.2 µM (inactive); with SR, > 100 µM (inactive); with MCF7 it was 12.1 µM (inactive); with Hs-578T, 28.8 µM (inactive); in the assay on A549, 31.1 µM (inactive); in the assay with HCT-15, 6.87 µM. In addition, the GI50 is 26.3 µM (inactive) with HCC 2998; 34.8 µM (inactive) in the assay on SF-295; 57.8 µM (inactive) with MDA-N; 35.1 µM (inactive) in the assay with PC-3; 61 µM (inactive) in the assay with HT-29; 32.5 µM (inactive) with K562.

Turning to `COc1cc2ccc3c4cc(OC)c(OC(C)C)cc4cnc3c2cc1OC`, the GI50 in the assay with SF-268, in the assay with HCT-116, in the assay with OVCAR-3, in the assay with UACC-257, with LOX IMVI and in the assay on SR was > 100 µM (inactive) throughout. Moreover, the GI50 in the assay on A549 is > 100 µM (inactive); in the assay with HCT-15 it was greater than 100 µM; in the assay on HCC 2998 it was > 100 µM (inactive); in the assay with SF-295, > 100 µM (inactive); with HT-29, > 100 µM (inactive); in the assay with K562, > 100 µM (inactive).

`COc1cc(C(C#N)NNC(=O)c2ccccc2O)ccc1O` (centres undefined): the GI50 was 0.368 µM (active) with SF-268; 2.26 µM (inactive) with HCT-116; 3.44 µM (inactive) in the assay with OVCAR-3; 6.35 µM (inactive) with UACC-257; 2.33 µM (inactive) in the assay with LOX IMVI; > 100 µM (inactive) in the assay with SR. The GI50 was 0.662 µM (active) with A549; 4.06 µM in the assay with HCT-15; 3.28 µM (inactive) in the assay with SF-295; 23.4 µM (inactive) in the assay on HT-29; 0.622 µM (active) in the assay on K562.

Turning to `C[C@H](CC[C@@H](O)C(C)(C)O)[C@H]1CC[C@@]2(C)[C@@H]3CC=C4[C@@H](CC[C@H](O)C4(C)C)[C@]3(C)C(=O)C[C@]12C` [BRYODULCOSIGENIN], the GI50 in the assay with HCT-116 is 22 µM (inactive); with DU-145, > 50 µM (inactive); in the assay on OVCAR-3, > 50 µM (inactive); in the assay with UACC-257, 49 µM (inactive); with NCI/ADR-RES it was 14.7 µM (inactive); in the assay with LOX IMVI, 45.9 µM (inactive). For the same compound, the GI50 in the assay with SR was 23.1 µM (inactive); in the assay with MCF7, 3.05 µM (inactive); with Hs-578T it was 45.7 µM (inactive); in the assay on A549, 27.7 µM (inactive); with HCT-15 it was 19.2 µM; in the assay with SF-295, > 50 µM (inactive). In addition, the GI50 in the assay on MDA-N was 22.9 µM (inactive); with PC-3 it was 13.7 µM (inactive); in the assay on HT-29, 10.8 µM (inactive); with K562, 19.6 µM (inactive).

`Cn1cc(NC(=O)c2cc(NC(=O)c3cc(NC=O)cn3C)cn2C)cc1C(=O)NCCC(=N)N` [STALLIMYCIN]: the GI50 in the assay with SF-268, with HCT-116, with DU-145, in the assay with OVCAR-3, in the assay on UACC-257 and with NCI/ADR-RES was > 100 µM (inactive) in each case. The GI50 with LOX IMVI is > 100 µM (inactive); with MCF7, > 100 µM (inactive); in the assay with Hs-578T it was 53.1 µM (inactive); in the assay with HCT-15, greater than 100 µM; in the assay with SF-295, > 100 µM (inactive); in the assay on PC-3, > 100 µM (inactive). Also, the GI50 in the assay on HT-29 and in the assay on K562 was > 100 µM (inactive) in each case.
